Reference: ChEMBL document CHEMBL1275409, “Antimicrobial-resistant pathogens in intensive care units in Canada: results of the Canadian National Intensive Care Unit (CAN-ICU) study, 2005-2006” (2008)

What was measured:
Type in all cases: functional
Streptococcus pneumoniae [1] = assay: Antimicrobial activity against penicillin-resistant Streptococcus pneumoniae assessed as resistant isolates by broth microdilution method
Enterobacter cloacae [2] = assay: Antimicrobial activity against carbapenem-resistant Enterobacter cloacae isolated from ICU patient wound assessed as resistant isolates by broth microdilution method
Pseudomonas aeruginosa [3] = assay: Antimicrobial activity against carbapenem-resistant Pseudomonas aeruginosa assessed as resistant isolates by broth microdilution method
Escherichia coli [4] = assay: Antimicrobial activity against CTX-M ESBL producing Escherichia coli isolated from ICU patient respiratory tract assessed as resistant isolates by broth microdilution method
Klebsiella pneumoniae [5] = assay: Antimicrobial activity against ESBL producing Klebsiella pneumoniae isolated from ICU patient respiratory tract assessed as resistant isolates by broth microdilution method
Klebsiella pneumoniae [6] = assay: Antimicrobial activity against ESBL producing Klebsiella pneumoniae isolated from ICU patient blood assessed as resistant isolates by broth microdilution method
Escherichia coli [7] = assay: Antimicrobial activity against CTX-M ESBL producing Escherichia coli isolated from ICU patient blood assessed as resistant isolates by broth microdilution method
Staphylococcus aureus [8] = assay: Antimicrobial activity against methicillin-resistant Staphylococcus aureus isolated from ICU patient wound assessed as resistant isolates by broth microdilution method
Staphylococcus aureus [9] = assay: Antimicrobial activity against methicillin-resistant Staphylococcus aureus isolated from ICU patient respiratory tract assessed as resistant isolates by broth microdilution method
[10] = test system: Staphylococcus epidermidis; assay: Antimicrobial activity against methicillin-resistant Staphylococcus epidermidis assessed as resistant isolates by broth microdilution method
Staphylococcus aureus [11] = assay: Antimicrobial activity against methicillin-susceptible Staphylococcus aureus isolated from ICU patient blood assessed as resistant isolates by broth microdilution method
Pseudomonas aeruginosa [12] = assay: Antimicrobial activity against carbapenem-resistant Pseudomonas aeruginosa isolated from ICU patient wound assessed as resistant isolates by broth microdilution method
Staphylococcus aureus [13] = assay: Antimicrobial activity against methicillin-resistant Staphylococcus aureus isolated from ICU patient urine assessed as resistant isolates by broth microdilution method
Klebsiella pneumoniae [14] = assay: Antimicrobial activity against ESBL producing Klebsiella pneumoniae isolated from ICU patient wound assessed as resistant isolates by broth microdilution method
Klebsiella pneumoniae [15] = assay: Antimicrobial activity against ESBL producing Klebsiella pneumoniae assessed as resistant isolates by broth microdilution method
Staphylococcus aureus [16] = assay: Antimicrobial activity against methicillin-resistant Staphylococcus aureus assessed as resistant isolates by broth microdilution method
[17] = test system: Staphylococcus epidermidis; assay: Antimicrobial activity against methicillin-susceptible Staphylococcus epidermidis isolated from ICU patient blood assessed as resistant isolates by broth microdilution method
[18] = test system: Staphylococcus epidermidis; assay: Antimicrobial activity against methicillin-susceptible Staphylococcus epidermidis isolated from ICU patient wound assessed as resistant isolates by broth microdilution method
Klebsiella pneumoniae [19] = assay: Antimicrobial activity against ESBL producing Klebsiella pneumoniae isolated from ICU patient urine assessed as resistant isolates by broth microdilution method
Staphylococcus aureus [20] = assay: Antimicrobial activity against methicillin-susceptible Staphylococcus aureus isolated from ICU patient urine assessed as resistant isolates by broth microdilution method
[21] = test system: Staphylococcus epidermidis; assay: Antimicrobial activity against methicillin-susceptible Staphylococcus epidermidis assessed as resistant isolates by broth microdilution method
Haemophilus influenzae [22] = assay: Antimicrobial activity against Haemophilus influenzae assessed as resistant isolates by broth microdilution method
Enterobacter cloacae [23] = assay: Antimicrobial activity against carbapenem-resistant Enterobacter cloacae assessed as resistant isolates by broth microdilution method
Pseudomonas aeruginosa [24] = assay: Antimicrobial activity against carbapenem-resistant Pseudomonas aeruginosa isolated from ICU patient blood assessed as resistant isolates by broth microdilution method
Enterobacter cloacae [25] = assay: Antimicrobial activity against carbapenem-resistant Enterobacter cloacae isolated from ICU patient respiratory tract assessed as resistant isolates by broth microdilution method
Haemophilus influenzae [26] = assay: Antimicrobial activity against Haemophilus influenzae isolated from ICU patient blood assessed as resistant isolates by broth microdilution method
Staphylococcus aureus [27] = assay: Antimicrobial activity against methicillin-resistant Staphylococcus aureus isolated from ICU patient blood assessed as resistant isolates by broth microdilution method
[28] = test system: Staphylococcus epidermidis; assay: Antimicrobial activity against methicillin-resistant Staphylococcus epidermidis isolated from ICU patient wound assessed as resistant isolates by broth microdilution method
Streptococcus pneumoniae [29] = assay: Antimicrobial activity against penicillin-resistant Streptococcus pneumoniae isolated from ICU patient respiratory tract assessed as resistant isolates by broth microdilution method
Pseudomonas aeruginosa [30] = assay: Antimicrobial activity against carbapenem-resistant Pseudomonas aeruginosa isolated from ICU patient urine assessed as resistant isolates by broth microdilution method
[31] = test system: Staphylococcus epidermidis; assay: Antimicrobial activity against methicillin-susceptible Staphylococcus epidermidis isolated from ICU patient respiratory tract assessed as resistant isolates by broth microdilution method
Haemophilus influenzae [32] = assay: Antimicrobial activity against Haemophilus influenzae isolated from ICU patient wound assessed as resistant isolates by broth microdilution method
Escherichia coli [33] = assay: Antimicrobial activity against CTX-M ESBL producing Escherichia coli assessed as resistant isolates by broth microdilution method
Enterobacter cloacae [34] = assay: Antimicrobial activity against carbapenem-resistant Enterobacter cloacae isolated from ICU patient urine assessed as resistant isolates by broth microdilution method
Staphylococcus aureus [35] = assay: Antimicrobial activity against methicillin-susceptible Staphylococcus aureus isolated from ICU patient respiratory tract assessed as resistant isolates by broth microdilution method
Haemophilus influenzae [36] = assay: Antimicrobial activity against Haemophilus influenzae isolated from ICU patient respiratory tract assessed as resistant isolates by broth microdilution method
Escherichia coli [37] = assay: Antimicrobial activity against CTX-M ESBL producing Escherichia coli isolated from ICU patient urine assessed as resistant isolates by broth microdilution method
[38] = test system: Staphylococcus epidermidis; assay: Antimicrobial activity against methicillin-susceptible Staphylococcus epidermidis isolated from ICU patient urine assessed as resistant isolates by broth microdilution method
[39] = test system: Staphylococcus epidermidis; assay: Antimicrobial activity against methicillin-resistant Staphylococcus epidermidis isolated from ICU patient blood assessed as resistant isolates by broth microdilution method
Pseudomonas aeruginosa [40] = assay: Antimicrobial activity against carbapenem-resistant Pseudomonas aeruginosa isolated from ICU patient respiratory tract assessed as resistant isolates by broth microdilution method
Streptococcus pneumoniae [41] = assay: Antimicrobial activity against penicillin-resistant Streptococcus pneumoniae isolated from ICU patient blood assessed as resistant isolates by broth microdilution method
Staphylococcus aureus [42] = assay: Antimicrobial activity against methicillin-susceptible Staphylococcus aureus isolated from ICU patient wound assessed as resistant isolates by broth microdilution method
Escherichia coli [43] = assay: Antimicrobial activity against CTX-M ESBL producing Escherichia coli isolated from ICU patient wound assessed as resistant isolates by broth microdilution method
Enterobacter cloacae [44] = assay: Antimicrobial activity against carbapenem-resistant Enterobacter cloacae isolated from ICU patient blood assessed as resistant isolates by broth microdilution method
Streptococcus pneumoniae [45] = assay: Antimicrobial activity against penicillin-resistant Streptococcus pneumoniae isolated from ICU patient wound assessed as resistant isolates by broth microdilution method
Staphylococcus aureus [46] = assay: Antimicrobial activity against methicillin-susceptible Staphylococcus aureus assessed as resistant isolates by broth microdilution method
[47] = test system: Staphylococcus epidermidis; assay: Antimicrobial activity against methicillin-resistant Staphylococcus epidermidis isolated from ICU patient urine assessed as resistant isolates by broth microdilution method
Enterococcus sp. [48] = assay: Antimicrobial activity against vancomycin-resistant Enterococcus sp. isolated from ICU patient wound assessed as resistant isolates by broth microdilution method
Enterococcus sp. [49] = assay: Antimicrobial activity against vancomycin-resistant Enterococcus sp. isolated from ICU patient respiratory tract assessed as resistant isolates by broth microdilution method
Enterococcus sp. [50] = assay: Antimicrobial activity against vancomycin-resistant Enterococcus sp. isolated from ICU patient urine assessed as resistant isolates by broth microdilution method
Enterococcus sp. [51] = assay: Antimicrobial activity against vancomycin-resistant Enterococcus sp. isolated from ICU patient blood assessed as resistant isolates by broth microdilution method
Enterococcus sp. [52] = assay: Antimicrobial activity against vancomycin-resistant Enterococcus sp. assessed as resistant isolates by broth microdilution method

CO/N=C(\C(=O)N[C@@H]1C(=O)N2C(C(=O)O)=C(CSc3nc(=O)c(O)nn3C)CS[C@H]12)c1csc(N)n1 [CEFTRIAXONE]
Activity (Streptococcus pneumoniae [1]): 0% | Activity (Enterobacter cloacae [2]): 5.9% | Activity (Pseudomonas aeruginosa [3]): 30% | Activity (Escherichia coli [4]): 2.5% | Activity (Klebsiella pneumoniae [5]): 0% | Activity (Klebsiella pneumoniae [6]): 0% | Activity (Escherichia coli [7]): 5.5% | Activity (Staphylococcus aureus [8]): 100% | Activity (Staphylococcus aureus [9]): 100% | Activity [10]: 100% | Activity (Staphylococcus aureus [11]): 0% | Activity (Pseudomonas aeruginosa [12]): 30.2% | Activity (Staphylococcus aureus [13]): 100% | Activity (Klebsiella pneumoniae [14]): 3.9% | Activity (Klebsiella pneumoniae [15]): 0.4% | Activity (Staphylococcus aureus [16]): 100% | Activity [17]: 1.8% | Activity [18]: 25% | Activity (Klebsiella pneumoniae [19]): 0% | Activity (Staphylococcus aureus [20]): 0% | Activity [21]: 8.1% | Activity (Haemophilus influenzae [22]): 0.3% | Activity (Enterobacter cloacae [23]): 13.9% | Activity (Pseudomonas aeruginosa [24]): 51.5% | Activity (Enterobacter cloacae [25]): 10.2% | Activity (Haemophilus influenzae [26]): 0% | Activity (Staphylococcus aureus [27]): 100% | Activity [28]: 100% | Activity (Streptococcus pneumoniae [29]): 0% | Activity (Pseudomonas aeruginosa [30]): 33.3% | Activity [31]: 0% | Activity (Haemophilus influenzae [32]): 0% | Activity (Escherichia coli [33]): 3.7% | Activity (Enterobacter cloacae [34]): 25% | Activity (Staphylococcus aureus [35]): 0% | Activity (Haemophilus influenzae [36]): 0.3% | Activity (Escherichia coli [37]): 4.2% | Activity [38]: 0% | Activity [39]: 100% | Activity (Pseudomonas aeruginosa [40]): 27% | Activity (Streptococcus pneumoniae [41]): 0% | Activity (Staphylococcus aureus [42]): 0% | Activity (Escherichia coli [43]): 1.7% | Activity (Enterobacter cloacae [44]): 29.2% | Activity (Streptococcus pneumoniae [45]): 0% | Activity (Staphylococcus aureus [46]): 0% | Activity [47]: 100%

O=C(O)c1cn(C2CC2)c2cc(N3CCNCC3)c(F)cc2c1=O [CIPROFLOXACIN]
Activity (Streptococcus pneumoniae [1]): 2.1% | Activity (Pseudomonas aeruginosa [3]): 4% | Activity (Escherichia coli [4]): 21.3% | Activity (Klebsiella pneumoniae [5]): 20.8% | Activity (Klebsiella pneumoniae [6]): 24.2% | Activity (Escherichia coli [7]): 23.3% | Activity (Staphylococcus aureus [8]): 92.6% | Activity [10]: 100% | Activity (Enterococcus sp. [48]): 50% | Activity (Enterococcus sp. [49]): 46.7% | Activity (Staphylococcus aureus [11]): 6.9% | Activity (Pseudomonas aeruginosa [12]): 11.5% | Activity (Staphylococcus aureus [13]): 100% | Activity (Klebsiella pneumoniae [14]): 28.3% | Activity (Klebsiella pneumoniae [15]): 23.8% | Activity [17]: 44.6% | Activity [18]: 70.8% | Activity (Enterococcus sp. [50]): 54.7% | Activity (Klebsiella pneumoniae [19]): 37.8% | Activity (Staphylococcus aureus [20]): 20% | Activity [21]: 54.7% | Activity (Haemophilus influenzae [22]): 0% | Activity (Pseudomonas aeruginosa [24]): 3.9% | Activity (Haemophilus influenzae [26]): 0% | Activity [28]: 100% | Activity (Streptococcus pneumoniae [29]): 2.6% | Activity (Pseudomonas aeruginosa [30]): 0% | Activity [31]: 100% | Activity (Haemophilus influenzae [32]): 0% | Activity (Escherichia coli [33]): 21.1% | Activity (Staphylococcus aureus [35]): 7.5% | Activity (Haemophilus influenzae [36]): 0% | Activity (Escherichia coli [37]): 19.8% | Activity [38]: 80% | Activity [39]: 100% | Activity (Pseudomonas aeruginosa [40]): 4.1% | Activity (Streptococcus pneumoniae [41]): 0% | Activity (Staphylococcus aureus [42]): 8% | Activity (Enterococcus sp. [51]): 58.1% | Activity (Enterococcus sp. [52]): 53.4% | Activity (Escherichia coli [43]): 24.1% | Activity (Streptococcus pneumoniae [45]): 0% | Activity [47]: 100%

C[C@H]1COc2c(N3CCN(C)CC3)c(F)cc3c(=O)c(C(=O)O)cn1c23.C[C@H]1COc2c(N3CCN(C)CC3)c(F)cc3c(=O)c(C(=O)O)cn1c23.O [LEVOFLOXACIN]
Activity (Streptococcus pneumoniae [1]): 1.7% | Activity (Enterobacter cloacae [2]): 5.9% | Activity (Pseudomonas aeruginosa [3]): 3.6% | Activity (Escherichia coli [4]): 21.3% | Activity (Klebsiella pneumoniae [5]): 21.5% | Activity (Klebsiella pneumoniae [6]): 24.2% | Activity (Escherichia coli [7]): 23.3% | Activity (Staphylococcus aureus [8]): 92.6% | Activity (Staphylococcus aureus [9]): 91.5% | Activity [10]: 100% | Activity (Enterococcus sp. [48]): 45.8% | Activity (Enterococcus sp. [49]): 46.7% | Activity (Staphylococcus aureus [11]): 6.9% | Activity (Pseudomonas aeruginosa [12]): 11.5% | Activity (Staphylococcus aureus [13]): 100% | Activity (Klebsiella pneumoniae [15]): 25.5% | Activity (Staphylococcus aureus [16]): 91.8% | Activity [17]: 42.9% | Activity [18]: 66.7% | Activity (Enterococcus sp. [50]): 52% | Activity (Klebsiella pneumoniae [19]): 40% | Activity (Staphylococcus aureus [20]): 20% | Activity [21]: 52.3% | Activity (Haemophilus influenzae [22]): 0% | Activity (Enterobacter cloacae [23]): 1.8% | Activity (Pseudomonas aeruginosa [24]): 3.9% | Activity (Enterobacter cloacae [25]): 0% | Activity (Haemophilus influenzae [26]): 0% | Activity (Staphylococcus aureus [27]): 91.8% | Activity [28]: 100% | Activity (Streptococcus pneumoniae [29]): 2.1% | Activity (Pseudomonas aeruginosa [30]): 0% | Activity [31]: 100% | Activity (Haemophilus influenzae [32]): 0% | Activity (Escherichia coli [33]): 21.1% | Activity (Enterobacter cloacae [34]): 6.3% | Activity (Staphylococcus aureus [35]): 6.9% | Activity (Haemophilus influenzae [36]): 0% | Activity (Escherichia coli [37]): 19.8% | Activity [38]: 80% | Activity [39]: 100% | Activity (Pseudomonas aeruginosa [40]): 3.3% | Activity (Streptococcus pneumoniae [41]): 0% | Activity (Staphylococcus aureus [42]): 7.1% | Activity (Enterococcus sp. [51]): 56.8% | Activity (Enterococcus sp. [52]): 51% | Activity (Escherichia coli [43]): 24.1% | Activity (Enterobacter cloacae [44]): 4.2% | Activity (Streptococcus pneumoniae [45]): 0% | Activity (Staphylococcus aureus [46]): 7.3% | Activity [47]: 100%
